Earlier results, collected in EP0858808B1, “Peptides for use in wound treatment” (Johnson & Johnson Medical Ltd., priority 1997, dated 2003).

System: human fibroblast
Settings: concentration range 2.5 mM to 25 mM

Substance: Gly-Pro-Ala
- chemotactic activity: no chemotactic activity
